Data published in publication PMC3830801, “Synthesis and Biological Evaluation of 2-Hydroxy-3-[(2-aryloxyethyl)amino]propyl 4-[(Alkoxycarbonyl)amino]benzoates” (The Scientific World Journal, 2013).

How the values were obtained:
[1] = tested on: Mycobacterium intracellulare; assay: In vitro antimycobacterial evaluation (alamarBlue, MIC); type: cell-based; settings: Mycobacterium intracellulare, 168 h; MIC/IC90, 7 days incubation, 37°C
Procedure: (§1) Clinical isolates of Mycobacterium avium subsp. paratuberculosis CIT03 and M. intracellulare were grown in Middlebrook broth (MB), supplemented with oleic-albumin-dextrose-catalase supplement (OADC, Becton Dickinson, UK) and mycobactin J (2 μg/mL). Identification of these isolates was performed using biochemical and molecular protocols. At log phase growth, the culture (10 mL) was centrifuged at 15,000 rpm/20 min using a bench top centrifuge (Model CR 4–12, Jouan Inc., UK). Following the removal of the supernatant, the pellet was washed in fresh Middlebrook 7H9GC broth and resuspended in fresh supplemented MB (10 mL). The turbidity was adjusted to match McFarland standard no. 1 (3 × 10^8 cfu) with MB broth. A further 1 : 20 dilution of the culture was then performed in MB broth. The antimicrobial susceptibility of all four mycobacterial species was investigated in a 96-well plate format. In these experiments, sterile deionised water (300 μL) was added to all outer-perimeter wells of the plates to minimize evaporation of the medium in the test wells during incubation. Each evaluated compound (100 μL) was incubated with each of the mycobacterial species (100 μL). Dilutions of each compound were prepared in duplicate. For all synthesized compounds, final concentrations ranged from 1,000 μg/mL to 8 μg/mL. All compounds were prepared in DMSO, and subsequent dilutions were made in supplemented MB. The plates were sealed with parafilm and incubated at 37°C, for 7 days in the case of M. intracellulare and 11 days in the case of M. avium paratuberculosis. Following incubation, a 10% addition of alamarBlue (AbD Serotec) was mixed with each well, and readings at 570 nm and 600 nm were taken, initially for background subtraction and subsequently after 24 h reincubation. […] For noninterfering compounds, a blue colour in the well was interpreted as an absence of growth, and a pink colour was scored as growth. The MIC was initially defined as the lowest concentration which prevented a visual colour change from blue to pink. […] The MIC/IC90 value is routinely and widely used in bacterial assays and is a standard detection limit according to the Clinical and Laboratory Standards Institute (CLSI, http://www.clsi.org/).

[2] = tested on: Mycobacterium avium subsp. paratuberculosis CIT03; assay: as above; type: cell-based; settings: Mycobacterium avium, 264 h; MIC/IC90, 11 days incubation, 37°C
Procedure: as §1

[3] = pKa determination by RP-HPLC; type: physicochemical; settings: from retention factor vs pH of mobile phase, recalculated for water medium
[4] = Lipophilicity determination by HPLC (capacity factor k / log k); type: physicochemical; settings: RP-HPLC, C18, MeOH 55%/H2O 45%
Description: A Waters Alliance 2695 XE HPLC separation module and a Waters Photodiode Array Detector 2996 (Waters Corp., Milford, MA, USA) were used. A Symmetry C18 5 μm, 4.6 × 250 mm, part number WAT054275 (Waters Corp., Milford, MA, USA) chromatographic column was used. The HPLC separation process was monitored by Empower 2 Chromatography Data Software, Waters 2009 (Waters Corp., Milford, MA, USA). A mixture of MeOH p.a. (55%) and H2O-HPLC–Milli-Q Grade (45%) was used as a mobile phase. The total flow of the column was 1.0 mL/min, injection volume 30 μL, column temperature 45°C, and sample temperature 10°C. The detection wavelength of 210 nm was chosen. The KI methanolic solution was used for the dead time (t D) determination. Retention times (t R) were measured in minutes. The capacity factors k were calculated using the Empower 2 Chromatography Data Software according to formula k = (t R − t D)/t D, where t R is the retention time of the solute, whereas t D denotes the dead time obtained using an unretained analyte. logk, calculated from the capacity factor k, is used as the lipophilicity index converted to logP scale.

[5] = tested on: spinach chloroplasts; assay: Photosynthetic electron transport (PET) in spinach chloroplasts (DCPIP photoreduction); type: biochemical, Spinacia oleracea L.; settings: DMSO 8% v/v
Procedure: Chloroplasts were prepared from spinach (Spinacia oleracea L.) according to Masarovičová and Král'ová [38]. The inhibition of photosynthetic electron transport (PET) in spinach chloroplasts was determined spectrophotometrically (Genesys 6, Thermo Scientific, USA), using an artificial electron acceptor 2,6-dichlorophenol-indophenol (DCIPP) according to Král'ová et al., and the rate of photosynthetic electron transport was monitored as a photoreduction of DCPIP. The measurements were carried out in phosphate buffer (0.02 mol/L, pH 7.2) containing sucrose (0.4 mol/L), MgCl2 (0.005 mol/L), and NaCl (0.015 mol/L). The chlorophyll content was 30 mg/L in these experiments, and the samples were irradiated (~100 W/m^2 with 10 cm distance) with a halogen lamp (250 W) using a 4 cm water filter to prevent warming of the samples (suspension temperature 22°C). The studied compounds were dissolved in DMSO due to their limited water solubility, and the concentration of DMSO was constant (8% (v/v)) in control as well as in amphiphile-treated samples.

[6] = tested on: human monocytic leukaemia THP-1 cell line; assay: In vitro cytotoxicity assay (WST-1); type: cell-based; settings: 24 h; for increase in LD50 relative to cytotoxicity: human, 30 μmol/L
Procedure: The human monocytic leukaemia THP-1 cell line was purchased from the European Collection of Cell Cultures (ECACC, Salisbury, UK). […] Cells were passaged at approximately one-week intervals. […] The maximum concentration of DMSO in the assays never exceeded 0.1%. Cytotoxicity of the compounds was determined using a WST-1 assay kit (Roche Diagnostics, Mannheim, Germany), as described previously. The median lethal dose values, LD50, were deduced through the production of a dose-response curve. All data from three independent experiments were evaluated using GraphPad Prism 5.00 software (GraphPad Software, San Diego, CA, USA, http://www.graphpad.com).

Row | Structure (SMILES) | MIC [1] [µM] | MIC [2] [µM] | pKa [3] | Log k [4] | effect on the rate of PET (in words) [5] | increase in LD50 relative to cytotoxicity [6] [%] | LD50 ([6]; THP-1 cells, highest dose 30 μmol/L) [µmol/L]
1 | CCCCOC(=O)Nc1ccc(C(=O)OCC(O)CNCCOc2ccccc2OC)cc1.Cl (centres unmarked) [Compound 19d, 2-Hydroxy-3-[2-(2-methoxyphenoxy)ethylamino]-propyl 4-(Butoxycarbonylamino)benzoate Hydrochloride] | 201 | 62 | 8.73 | 0.4228 | significantly stimulated the rate of PET |  | 
2 | CCCCOC(=O)Nc1ccc(C(=O)OCC(O)CNCCOc2ccc(F)cc2)cc1.Cl (centres unmarked) [Compound 23d, 3-[2-(4-Fluorophenoxy)ethylamino]-2-hydroxypropyl 4-(Butoxycarbonylamino)benzoate Hydrochloride] | 258 | 64 | 8.08 | 0.4365 | significantly stimulated the rate of PET | 96 | 
3 | CCCOC(=O)Nc1ccc(C(=O)OCC(O)CNCCOc2ccccc2OC)cc1.Cl (centres unmarked) [Compound 19c, 2-Hydroxy-3-[2-(2-methoxyphenoxy)ethylamino]-propyl 4-(Propoxycarbonylamino)benzoate Hydrochloride] | 259 | 64 | 8.67 | 0.4089 | relatively strong PET stimulation |  | 
4 | CC[C@@]1(O)C(=O)OCc2c1cc1n(c2=O)Cc2cc3ccccc3nc2-1 [camptothecin, reference compound] |  |  |  |  |  |  | 0.16 ± 0.07
5 | CCCCOC(=O)Nc1ccc(C(=O)OCC(O)CNCCOc2c(OC)cccc2OC)cc1.Cl (centres unmarked) [Compound 21d, 2-Hydroxy-3-[2-(2,6-dimethoxyphenoxy)ethylamino]-propyl 4-(Butoxycarbonylamino)benzoate Hydrochloride] | 114 | 59 | 8.58 | 0.4177 | significantly stimulated the rate of PET | 61 | 
